Measured values reported in article PMC6749586, “Design, Synthesis, and Anticancer Effect Studies of Iridium(III) Polypyridyl Complexes against SGC-7901 Cells” (Molecules, 2019).
Like-named read-outs stand apart in the source and are kept apart here.

Key:
A549 cells = test: MTT cytotoxicity assay, A549; type: cell-based, human; settings: read-out: IC50 toward A549
Excerpt: (§1) The lung carcinoma cell line A549, the cervical cancer cell line HeLa, the esophageal cancer cell line Eca-109, and the human hepatocellular carcinoma cell line BEL-7402 were purchased from the cell bank of the Cell Institute of Sinica Academia Shanghai (Shanghai, China). The gastric adenocarcinoma cell line SGC-7901, the hepatocellular carcinoma cell line HepG2, and the mouse embryonic fibroblast cell line NIH 3T3 were obtained from the Experimental Animal Center of Sun Yat-Sen University (Guangzhou, China). The BEL-7402 and SGC-7901 cell lines were cultured in Roswell Park Memorial Institute Medium (RPMI-1640); and A549, Eca-109, HepG2, and NIH 3T3 cells were grown in Dulbecco’s Modified Eagle’s Medium (DMEM), including 10% fetal bovine serum (FBS), 100 units mL^−1 penicillin/streptomycin mixture, and 2.0 g/L of NaHCO3. Cell passage experiments were performed with trypsin every 2 days to maintain exponential growth. All cells were cultured until they reached logarithmic growth phase, unless specifically noted.
(§2) Cell cytotoxicity following treatment with the iridium(III) complexes was detected by MTT assay. The cells were seeded into 96-well micro-assay culture plates (1 × 10^4 cells per well) and grown overnight in a 5% CO2 incubator at 37 °C. Then, the cell lines were treated with gradient concentrations of the complexes 1–3. After treatment for 48 h, MTT solution (5 mg mL^−1, […]) dissolved in phosphate buffer was added to each well and the cells were further cultured for 4 h. Upon completion of incubation, the solvent was removed and 100 µL/well of buffer containing dimethylformamide (50%) and sodium dodecyl sulfate (20%) was added to dissolve the produced formazan. The absorbance of each well was measured with a microplate reader at a wavelength of 490 nm. The IC50 values were determined from the plots of viability versus concentration used to treat the cells. Three independent experiments were performed to obtain the mean values.

HeLa cells = test: MTT cytotoxicity assay, HeLa; type: cell-based, human; settings: 48 h, read-out: IC50 toward HeLa
Excerpt: as §1, §2

Eca-109 cells = test: MTT cytotoxicity assay, Eca-109; type: cell-based, human; settings: 48 h, read-out: IC50 toward Eca-109
Excerpt: The lung carcinoma cell line A549, the cervical cancer cell line HeLa, the esophageal cancer cell line Eca-109, and the human hepatocellular carcinoma cell line BEL-7402 were purchased from the cell bank of the Cell Institute of Sinica Academia Shanghai (Shanghai, China). The gastric adenocarcinoma cell line SGC-7901, the hepatocellular carcinoma cell line HepG2, and the mouse embryonic fibroblast cell line NIH 3T3 were obtained from the Experimental Animal Center of Sun Yat-Sen University (Guangzhou, China). […] Cell passage experiments were performed with trypsin every 2 days to maintain exponential growth. All cells were cultured until they reached logarithmic growth phase, unless specifically noted. Cell cytotoxicity following treatment with the iridium(III) complexes was detected by MTT assay. The cells were seeded into 96-well micro-assay culture plates (1 × 10^4 cells per well) and grown overnight in a 5% CO2 incubator at 37 °C. Then, the cell lines were treated with gradient concentrations of the complexes 1–3. After treatment for 48 h, MTT solution (5 mg mL^−1, […]) dissolved in phosphate buffer was added to each well and the cells were further cultured for 4 h. […] The absorbance of each well was measured with a microplate reader at a wavelength of 490 nm. The IC50 values were determined from the plots of viability versus concentration used to treat the cells. Three independent experiments were performed to obtain the mean values.

SGC-7901 cells [1] = test: MTT cytotoxicity assay, SGC-7901; type: cell-based, human; settings: read-out: IC50 toward SGC-7901
Excerpt: as §1, §2

HepG2 cells = test: MTT cytotoxicity assay, HepG2; type: cell-based, human; settings: read-out: IC50 toward HepG2
Excerpt: as §1, §2

BEL-7402 cells = test: MTT cytotoxicity assay, BEL-7402; type: cell-based, human; settings: read-out: IC50 toward BEL-7402
Excerpt: as §1, §2

NIH 3T3 cells = test: MTT cytotoxicity assay, normal NIH 3T3; type: cell-based, mouse; settings: Mus musculus, NIH3T3, 48 h, read-out: IC50 toward NIH 3T3
Excerpt: as §1, §2

SGC-7901 cells [2] = test: Mitochondrial membrane potential assay with JC-1; type: cell-based, human; settings: substance alone: 4.0 µM 1, 15.0 µM 2, 15.0 µM 3, CCCP or NAC; 24 h; control 12.03
Procedure: The SGC-7901 cells were seeded into a 12-well plate at a density of 1.5 × 10^5 cells per well and incubated to attach at 37 °C in 5% CO2. Overnight, the cells were treated with complexes 1–3 for 24 h. CCCP was used as a positive control. Then, the cells were incubated with JC-1 for 30 min at room temperature, after which the remaining dye was washed away with PBS. The samples were then observed under the ImageXpress Micro XLS system and flow cytometry was employed to quantify the fluorescence intensity.

## N.N.[Cl][Pt][Cl] [Cisplatin, reference compound]
A549 cells; 48 h
  IC50: 7.5 ± 1.3 µM
HeLa cells
  IC50: 7 ± 1 µM
Eca-109 cells
  IC50: 11.2 ± 0.6 µM
SGC-7901 cells [1]; 48 h
  IC50: 3.6 ± 0.5 µM
HepG2 cells; 48 h
  IC50: 12.5 ± 1.5 µM
BEL-7402 cells; 48 h
  IC50: 10.8 ± 1.6 µM

## Nc1c(N)c2cccnc2c2ncccc12 [DAP, 5,6-diamino-phenanthroline]
A549 cells; Homo sapiens, A549, 48 h
  IC50: 5 ± 0.3 µM
HeLa cells; Homo sapiens, HeLa
  IC50: 9.2 ± 1 µM
SGC-7901 cells [1]; Homo sapiens, SGC-7901, 48 h
  IC50: 15.8 ± 2.8 µM
HepG2 cells; Homo sapiens, HepG2, 48 h
  IC50: 4.6 ± 0.8 µM
BEL-7402 cells; Homo sapiens, Bel-7402, 48 h
  IC50: 37.4 ± 3.2 µM
NIH 3T3 cells
  IC50: 12.3 ± 0.8 µM

## CC(=O)N[C@@H](CS)C(=O)O [NAC, N-acetylcysteine, reference compound]
SGC-7901 cells [2]
  Ratio of red/green JC-1 fluorescence intensity (R): 19.40

## Nc1c([N+](=O)[O-])c2cccnc2c2ncccc12 [NAP, 5-nitro-6-amino-phenanthroline]
A549 cells; Homo sapiens, A549, 48 h
  IC50: 42.7 ± 2.1 µM
HeLa cells; Homo sapiens, HeLa
  IC50: 45.8 ± 4 µM
SGC-7901 cells [1]; Homo sapiens, SGC-7901, 48 h
  IC50: 90.9 ± 7.4 µM
HepG2 cells; Homo sapiens, HepG2, 48 h
  IC50: 56 ± 1.9 µM
BEL-7402 cells; Homo sapiens, Bel-7402, 48 h
  IC50: 21.1 ± 0.8 µM
NIH 3T3 cells
  IC50: 61.9 ± 1.9 µM

## O=[N+]([O-])c1cc2cccnc2c2ncccc12 [NP, 5-nitrophenanthroline]
A549 cells; Homo sapiens, A549, 48 h
  IC50: 11.1 ± 0.7 µM
HeLa cells; Homo sapiens, HeLa
  IC50: 18.1 ± 1.7 µM
SGC-7901 cells [1]; Homo sapiens, SGC-7901, 48 h
  IC50: 18.4 ± 0.1 µM
HepG2 cells; Homo sapiens, HepG2, 48 h
  IC50: 16.7 ± 0.5 µM
BEL-7402 cells; Homo sapiens, Bel-7402, 48 h
  IC50: 23.5 ± 1.1 µM
NIH 3T3 cells
  IC50: > 200 µM
